Earlier results as cited in paper PMC7395068, “The evolution of strategies to minimise the risk of human drug-induced liver injury (DILI) in drug discovery and development” (Archives of Toxicology, 2020).
Like-named read-outs stand apart in the source and are kept apart here.

Tests used:
[1] = cited from earlier work
[2] = system: primary human hepatocytes, NIH3T3 fibroblasts, BSEP, CYP3A4; settings: In vitro Assay; ref Schadt 2015; cited from earlier work
[3] = system: THLE-Null and THLE-3A4 cells; settings: In vitro Assay; ref Gustafsson 2014; cited from earlier work
[4] = cited from earlier work; remark: listed apart in the source
rBsep = settings: In vitro Assay; ref Dawson 2012; cited from earlier work
human hepatocytes = settings: cited from earlier work
PHH spheroids = settings: In vitro Assay; ref Vorrink 2018; cited from earlier work
[5] = cited from earlier work; remark: listed apart in the source
[6] = system: isolated mouse liver mitochondria; settings: In vitro Assay; ref Porceddu 2012; cited from earlier work
[7] = system: THLE or HepG2 cells, isolated mitochondria, BSEP; settings: In vitro Assay; ref Aleo 2019; cited from earlier work
HepG2 cells [8] = settings: In vitro Assay; ref O'Brien 2006; cited from earlier work
HepG2 cells [9] = settings: In vitro Assay; ref Persson 2013; cited from earlier work

SMILES	DILI +VE (5-8), DILI -VE (-4) ([1]; in vivo)	DILI severity category ([1]; in vivo)	THLE-Null [3]	DILI Score (FDA) (1-8) ([4]; in vivo)	Inhibition of rBsep cutoff<1& cmax u>.2 (rBsep)	Inhibition of rBsep cutoff<3 (rBsep)	Structural based (HCI) (human hepatocytes; In vitro Assay, ref Xu 2008)	hLiMTs ATP <20 x Cmax (PHH spheroids)	in vitro data EC2<=1x Cmax [6]	DILI +VE (5-8), DILI -VE (-4) ([1]; ref Chen 2016)	DILI severity category ([1]; ref Chen 2016)	Partition Hybrid HRM Score [7]	Ro2 Hybrid HRM Score [7]	In vivo DILI ([5]; […])	In vivo DILI ([5]; ref Aleo 2019)	In vivo DILI ([5]; ref Porceddu 2012)	in vitro data EC20<=2uM [6]	DILI Score (FDA) (1-8) ([4]; ref Chen 2011)	In vivo DILI ([5]; ref Vorrink 2018)	In vivo DILI ([5]; ref Xu 2008)	other results
Nc1nc2c(ncn2COCCO)c(=O)[nH]1 [acyclovir]	+VE	vLess-DILI-Concern	-VE	5	-VE	-VE	–	–	–	–	–	–	–	–	–	–	–	–	–	–	Cellular toxicity (3T3 cells) [2]: -VE; Combined Assay [2]: -VE; GSH adduct HML [2]: -VE; Hepatocyte cellular toxicity [2]: -VE; MitoTox 3T3 [2]: -VE; TDI CYP3A4 [2]: -VE; hBSEP inhibition [2]: -VE
NC12CC3CC(CC(C3)C1)C2 [amantadine]	-VE	Ambiguous DILI-concern	–	3	–	–	-VE	-VE	-VE	–	–	–	–	–	–	–	–	–	–	–	In vivo DILI ([5]; in vivo): -VE
CC1(C)S[C@@H]2[C@H](NC(=O)[C@H](N)c3ccc(O)cc3)C(=O)N2[C@H]1C(=O)O [amoxicillin]	–	–	-VE	–	-VE	-VE	–	–	+VE	+VE	vLess-DILI-Concern	-VE	-VE	-VE	+VE	+VE	+VE	3	–	–	In vivo DILI ([5]; ref Dawson 2012): -VE; In vivo DILI ([5]; ref Garside 2014): +VE; In vivo DILI ([5]; ref Gustafsson 2014): +VE; In vivo DILI ([5]; ref Schadt 2015): -VE
CS(=O)(=O)OCCCCOS(C)(=O)=O [busulfan]	–	–	–	–	–	–	–	–	+VE	+VE	vMost-DILI-Concern	–	–	+VE	–	+VE	-VE	8	–	–	–
OC(Cn1cncn1)(Cn1cncn1)c1ccc(F)cc1F [fluconazole]	–	–	–	–	–	–	-VE	-VE	+VE	+VE	vMost-DILI-Concern	–	-VE	+VE	+VE	+VE	-VE	8	+VE	+VE	–
CC(C)Cc1ccc(C(C)C(=O)O)cc1 (stereo not drawn) [ibuprofen]	+VE	vLess-DILI-Concern	-VE	3	-VE	+VE	–	–	+VE	–	–	–	–	–	–	–	+VE	–	–	–	Cellular toxicity (3T3 cells) [2]: -VE; Combined Assay [2]: -VE; GSH adduct HML [2]: -VE; Hepatocyte cellular toxicity [2]: -VE; MitoTox 3T3 [2]: -VE; TDI CYP3A4 [2]: -VE; hBSEP inhibition [2]: -VE; Structural based (HCI) (HepG2 cells [8]): +VE; Structural based (HCI) (HepG2 cells [9]): +VE
O=C(c1ccccc1)c1ccc2n1CCC2C(=O)O (stereo not drawn) [ketorolac]	–	–	–	–	–	–	-VE	+VE (IC20 < 20 × Cmax.tot cut-off)	–	+VE	vLess-DILI-Concern	-VE	-VE	–	+VE	–	–	3	+VE	+VE	Structural based (HCI) (HepG2 cells [8]): -VE; Cluser analysis (HepG2 cells [9]): -VE; Structural based (HCI) (HepG2 cells [9]): -VE; In vivo DILI ([5]; ref O'Brien 2006): +VE; In vivo DILI ([5]; ref Persson 2013): +VE
Sc1ncnc2nc[nH]c12 [mercaptopurine]	–	–	–	–	–	–	-VE	+VE (IC20 < 20 × Cmax.tot cut-off)	-VE	+VE	vMost-DILI-Concern	+VE	+VE	+VE	+VE	+VE	+VE	8	+VE	+VE	Structural based (HCI) (HepG2 cells [8]): +VE; Cluser analysis (HepG2 cells [9]): +VE; Structural based (HCI) (HepG2 cells [9]): +VE; In vivo DILI ([5]; ref O'Brien 2006): +VE; In vivo DILI ([5]; ref Persson 2013): +VE
Cc1cccc(C)c1OCC(C)N (stereo not drawn) [mexiletine]	+VE	vMost-DILI-Concern	–	3	–	–	–	+VE (IC20 < 20 × Cmax.tot cut-off)	–	–	–	–	–	–	–	–	–	–	–	–	Structural based (HCI) (human hepatocytes): +VE; In vivo DILI ([5]; in vivo): +VE
